The numbers were not newly measured in patent US20080081067A1, “SUSTAINED RELEASE PHARMACEUTICAL COMPOSITIONS OF VENLAFAXINE AND PROCESS FOR PREPARATION THEREOF” (priority 2006, published 2008), which cites them from elsewhere.

Structures are written as SMILES.

The subject of this series is monoamine oxidase. The settings on record: background statement.

For the compound `COc1ccc(C(CN(C)C)C2(O)CCCCC2)cc1` (stereo not shown) [Venlafaxine], the “inhibitory activity on monoamine oxidase” value is “no inhibitory activity”.
